The source of these data is PMC7697888, “Comprehensive Set of Tertiary Complex Structures and Palmitic Acid Binding Provide Molecular Insights into Ligand Design for RXR Isoforms” (International Journal of Molecular Sciences, 2020).

Experiment [1] has as its system all RXR subtypes. More on the design: method as in PMID 9205071, PMID 26030625, PMID 27151148. The following applies: read-out: EC50 activating all RXR subtypes; cited from earlier work.
The test system of experiment [2] is RXR. The experiment is described as follows: Gal4 hybrid reporter gene assays, competition with bexarotene / antagonist UVI3003 (isoform not specified). The following applies: UVI3003 at 1 µM; MA, PA and SA at 200 µM. The class given is cell-based, human. Here is the method: The Gal4 hybrid reporter gene assays for RXRα, RXRβ and RXRγ were performed as described previously using the Gal4-fusion receptor plasmids pFA-CMV-hRXRα-LBD (NR2B1, UniProt entry: P19793, aa 225–462), pFA-CMV-hRXRβ-LBD (NR2B2, UniProt entry: P28702-1, aa 294–533) and pFA-CMV-hRXRγ-LBD (NR2B3, UniProt entry: P48443-1, aa 229–463), which code for the hinge region and LBD of the canonical RXR isoform. pFR-Luc (Stratagene, San Diego, CA, USA) as the reporter plasmid and pRL-SV40 (Promega, Madison, WI, USA) as the internal control were used. HEK293T cells were grown in DMEM high-glucose medium (supplemented with 10% fetal calf serum (FCS), sodium pyruvate (1 mM), penicillin (100 U/mL) and streptomycin (100 μg/mL)) at 37 °C and 5% CO2, and seeded in 96-well plates (3.0 × 10^4 cells/well) on the day before transfection. Right before transfection, medium was changed to Opti-MEM without supplements and cells were transiently transfected using the Lipofectamine LTX reagent (Invitrogen, Carlsbad, CA, USA) according to the manufacturer’s protocol with pFR-Luc (Stratagene), pRL-SV40 (Promega) and the respective pFA-CMV-hRXR-LBD clone. After 5 h of incubation, medium was changed to Opti-MEM (supplemented with penicillin (100 U/mL) and streptomycin (100 μg/mL)) additionally containing 0.1% DMSO and the respective test compounds or 0.1% DMSO alone as the untreated control. After overnight incubation (12–14 h), cells were assayed for luciferase activity using the Dual-Glo luciferase assay system (Promega) according to the manufacturer’s protocol on a Tecan Spark M10 luminometer (Tecan Deutschland GmbH, Crailsheim, Germany). Each sample was tested in at least three biologically independent repeats in duplicates. Data were normalized for transfection efficiency and cell growth by division of firefly luciferase data by Renilla luciferase data and multiplying by 1000 to obtain relative light units (RLUs). Fold activation denotes the mean RLU of test compounds at a respective concentration divided by the mean RLU of untreated control. […]

Experiment [3] concerns RXRα. More on the design: method as in PMID 15073272. The following applies: cited from earlier work.
Experiment [4] addresses T1, RXRα ligand-binding domain (NR2B1, aa 223–462) (human, UniProt P19793 223-462).
T1 construct: Cloned in pNIC28-Bsa4; Palmitic acid carried over from E. coli sat in the ligand pocket in the crystal; also called RXRα LBD; retinoid X receptor α; not shown: histidine tag, N-terminal, cleaved
T1 sequence (looked up): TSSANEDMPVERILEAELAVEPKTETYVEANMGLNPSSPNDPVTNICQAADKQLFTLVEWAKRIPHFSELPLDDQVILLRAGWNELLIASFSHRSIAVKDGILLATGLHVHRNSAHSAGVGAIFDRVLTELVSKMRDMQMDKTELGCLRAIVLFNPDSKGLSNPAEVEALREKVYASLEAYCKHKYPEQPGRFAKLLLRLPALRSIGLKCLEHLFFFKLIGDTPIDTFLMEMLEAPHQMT
Description: crystal structure; sitting drop vapor diffusion at 20 °C; RXR LBD (10–13 mg/mL) with GRIP-1 peptide and palmitic acid (carried over from E. coli for RXRα, exogenously added for RXRβ and RXRγ). The following applies: both partners purified.

Experiment [5] has as its target T2, RXRβ ligand-binding domain (NR2B2, aa 298–533) (human, UniProt P28702 298-533).
T2 construct: Cloned in pNIC28-Bsa4; Crystallised with exogenously added palmitic acid; also called RXRβ LBD; not shown: histidine tag, N-terminal, cleaved
T2 sequence (looked up): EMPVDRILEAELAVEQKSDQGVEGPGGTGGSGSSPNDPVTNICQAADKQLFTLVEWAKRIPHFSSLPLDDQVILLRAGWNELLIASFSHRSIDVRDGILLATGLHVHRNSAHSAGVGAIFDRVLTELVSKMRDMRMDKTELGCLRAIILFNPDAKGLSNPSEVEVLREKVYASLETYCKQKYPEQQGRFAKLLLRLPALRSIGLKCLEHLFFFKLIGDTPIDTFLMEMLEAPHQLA
The experiment is described as above. The following applies: both partners purified.

Experiment [6] deals with T3, RXRγ ligand-binding domain (NR2B3, aa 233–463) (human, UniProt P48443 233-463).
T3 construct: Cloned in pNIC28-Bsa4; Crystallised with exogenously added palmitic acid; also called RXRγ LBD; not shown: histidine tag, N-terminal, cleaved
T3 sequence (looked up): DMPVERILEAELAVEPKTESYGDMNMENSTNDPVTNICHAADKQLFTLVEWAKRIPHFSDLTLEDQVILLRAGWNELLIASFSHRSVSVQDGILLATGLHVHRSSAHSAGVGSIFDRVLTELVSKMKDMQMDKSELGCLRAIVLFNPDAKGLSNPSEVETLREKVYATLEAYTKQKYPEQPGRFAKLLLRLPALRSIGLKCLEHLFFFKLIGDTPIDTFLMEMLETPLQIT
Described as above. The following applies: both partners purified.

Experiment [7] concerns the target T4, sGFP-RXRα LBD (aa 225–462) (human, UniProt P19793 225-462).
T4 construct: also called recombinant RXRα LBD fused to N-terminal superfolder green fluorescent protein; source: recombinant; not shown: superfolder green fluorescent protein (sGFP), N-terminal, kept
T4 sequence (looked up): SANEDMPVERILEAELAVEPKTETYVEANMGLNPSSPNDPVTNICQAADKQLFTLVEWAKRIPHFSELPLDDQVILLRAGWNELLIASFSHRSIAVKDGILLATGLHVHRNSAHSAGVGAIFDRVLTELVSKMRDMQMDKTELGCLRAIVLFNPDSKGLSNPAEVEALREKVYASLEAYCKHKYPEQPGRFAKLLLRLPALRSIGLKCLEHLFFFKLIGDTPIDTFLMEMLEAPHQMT
The experiment is described as follows: AlphaScreen or HTRF; 12 nM sGFP-RXRα LBD (acceptor), 12 nM biotin-SRC-1 peptide on terbium cryptate-streptavidin (donor); 25 mM HEPES pH 7.5, 150 mM KF, 5% glycerol, 0.1% CHAPS, 5 mM DTT, 1% DMSO; 2 h at room temperature; with myristic, palmitic or stearic acid at varying concentrations, with or without 0.3 µM bexarotene; SR11237 as positive control. Conditions: both partners purified.

No end group written: not given here. *: point of attachment. Biotin = O=C1N[C@H]2[C@H](CS[C@H]2CCCCC(=O)*)N1

Turning to `CC1=C(/C=C/C(C)=C\C=C\C(C)CC(=O)O)C(C)(C)CCC1` (stereo not drawn) [9-cis-13,14-dihydroretinoic acid], in experiment [1], the EC50 was roughly 0.1 µM.

For `CC1=C(/C=C/C(C)=C\C=C\C(C)=C\C(=O)O)C(C)(C)CCC1` [9-cis-retinoic acid], the EC50 in experiment [1] was roughly 0.1 µM.

Take `CCCCCOc1cc2c(cc1-c1cc(/C=C/C(=O)O)ccc1O)C(C)(C)CCC2(C)C` [UVI3003, reference compound]: the “reversal of RXR agonistic effect of MA, PA and SA” value in experiment [2] was “fully reversed”.

Take `CCCCC/C=C\C/C=C\C/C=C\C/C=C\CCCC(=O)O` [arachidonic acid]: the EC50 in experiment [3] was roughly 10 µM.

In the case of `CC/C=C\C/C=C\C/C=C\C/C=C\C/C=C\C/C=C\CCC(=O)O` [docosahexaenoic acid], the 50% effective concentration (EC50) in experiment [3] was roughly 10 µM.

B1: glucocorticoid receptor interacting protein 1 (GRIP-1) co-regulator peptide (peptide)
peptide: KHKILHRLLQDSSY
notes: NCOA2/TIF2) with an LxxLL box; last printed residue of the peptide; also called GRIP-1 peptide
Consider B1, for which the binding result in experiment [4], in experiment [5] and in experiment [6] was “binds” in each case.

B2: SRC-1-derived peptide (steroid receptor co-activator 1) (peptide)
peptide: Biotin-CPSSHSSLTERHKILHRLLQEGSPS
notes: NCOA1), contains the consensus motif LxxLL; Coupled through its biotin to terbium cryptate-streptavidin conjugate (FRET donor); source: bought: Eurogentec Deutschland GmbH; not shown: biotin, N-terminal, kept
As for B2, the binding result in experiment [7] was “binds”.
